For orientation: EC50 means the concentration at which the effect is half-maximal. A high value points to a need for much substance.

Where a name gives a salt, the structure may show the parent alone.

One experiment deals with Sphingosine 1-phosphate receptor 1 (Homo sapiens, UniProt P21453). Briefly: S1P1 receptor agonists, dose response, cell-based, agonist mode, 60K MLSMR set (AID 468).
Sphingosine 1-phosphate receptor 1, sequence (P21453 whole entry): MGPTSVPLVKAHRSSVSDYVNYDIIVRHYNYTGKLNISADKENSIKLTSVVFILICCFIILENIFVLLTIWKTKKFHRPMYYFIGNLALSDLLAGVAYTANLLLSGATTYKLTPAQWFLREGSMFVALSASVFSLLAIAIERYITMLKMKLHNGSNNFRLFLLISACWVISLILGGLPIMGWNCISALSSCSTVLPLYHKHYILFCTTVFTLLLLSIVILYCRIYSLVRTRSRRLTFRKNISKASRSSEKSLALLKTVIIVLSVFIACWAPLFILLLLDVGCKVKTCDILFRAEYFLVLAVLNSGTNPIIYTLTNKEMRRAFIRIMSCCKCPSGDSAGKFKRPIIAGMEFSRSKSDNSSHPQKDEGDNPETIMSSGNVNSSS
Settings: not given
`CC(=O)c1ccc(NC(=O)N2CCN(c3cccc(Cl)c3)CC2)cc1` [4-(3-chlorophenyl)-N-(4-ethanoylphenyl)piperazine-1-carboxamide] had an EC50 of 9.76 µM.
Consider `c1ccc(N2CCN(c3ncnc4c3oc3ccccc34)CC2)cc1` [4-(4-phenyl-1-piperazinyl)benzofuro[3,2-d]pyrimidine], for which the EC50 was > 95 µM.
As to `CCOc1cc(C2NCc3ccccc3-n3cccc32)ccc1O` (stereo not drawn) [4-(5,6-dihydro-4H-pyrrolo[1,2-a][1,4]benzodiazepin-4-yl)-2-ethoxy-phenol;hydrochloride], a half-maximal effect (EC50) was put at 16.1 µM.
`Oc1ccc(-c2nnc(SCC3CCCCC3)o2)cc1` [4-(5-Cyclohexylmethylsulfanyl-[1,3,4]oxadiazol-2-yl)-phenol] gave an EC50 of 0.552 µM.
Still for that read-out and setting: the result for `CC(C)c1ccc2oc(-c3ccc(N)cc3)nc2c1` [4-(5-propan-2-yl-1,3-benzoxazol-2-yl)aniline] reads 2.64 µM.
`Cc1nc2sccn2c1-c1csc(NCc2ccccc2)n1` [4-(6-methyl-5-imidazo[2,1-b]thiazolyl)-N-(phenylmethyl)-2-thiazolamine] yielded a 50% effective concentration (EC50) of 2.77 µM.
As to `O=C(Nc1nccs1)c1ccc(S(=O)(=O)NCC2CCCCC2)cc1` [4-(Cyclohexylmethyl-sulfamoyl)-N-thiazol-2-yl-benzamide], a half-maximal response (EC50) required 8.02 µM.
In the case of `Cc1ccc2[nH]c3c(N4CCCCCC4)ncnc3c2c1` [4-(azepan-1-yl)-8-methyl-5H-pyrimido[5,4-b]indole], it took 4.15 µM to reach a half-maximal effect (EC50).
With `CCOC(=O)c1cnc(-n2nc(C)cc2C)nc1NC1CCCCC1` [4-(cyclohexylamino)-2-(3,5-dimethyl-1-pyrazolyl)-5-pyrimidinecarboxylic acid ethyl ester], the EC50 was found to be 6.37 µM.
On to `CN(C)S(=O)(=O)c1ccc(C(=O)Nc2nc(-c3cccs3)cs2)cc1` [4-(dimethylsulfamoyl)-N-(4-thiophen-2-yl-1,3-thiazol-2-yl)benzamide], for which the EC50 was > 10 µM.
The molecule `CCN(C1CCCCC1)S(=O)(=O)c1ccc(S(=O)(=O)NCc2ccncc2)cc1` [4-N-cyclohexyl-4-N-ethyl-1-N-(pyridin-4-ylmethyl)benzene-1,4-disulfonamide] registered an EC50 of 5.55 µM.
In turn, `CCOC(=O)N1CCN(C(=O)C2CCN(c3ncnc4c3sc3cccc(F)c34)CC2)CC1` [4-[1-(9-fluorobenzothiopheno[3,2-d]pyrimidin-4-yl)isonipecotoyl]piperazine-1-carboxylic acid ethyl ester] showed an EC50 of 5.92 µM.
In the case of `CCCOC(=O)c1ccc(OCC(O)Cn2c(C)nc3ccccc32)cc1` (stereo not drawn) [4-[2-hydroxy-3-(2-methyl-1-benzimidazolyl)propoxy]benzoic acid propyl ester], the midpoint of the response, the EC50, lay at 8.15 µM.
Still for that read-out and setting: the result for `COC(=O)c1ccc(OCC(O)Cn2nnc3ccccc32)cc1` (stereo not drawn) [4-[3-(1-benzotriazolyl)-2-hydroxypropoxy]benzoic acid methyl ester] reads > 95 µM.
Same read-out and setting: the result for `Cc1ccccc1-c1noc(-c2ccc(O)cc2)n1` [4-[3-(2-methylphenyl)-2H-1,2,4-oxadiazol-5-ylidene]-1-cyclohexa-2,5-dienone] reads 8.46 µM.
The molecule `O=C(c1cc(-c2ccc(O)cc2)on1)N1CCc2ccccc2C1` [4-[3-(3,4-dihydro-1H-isoquinolin-2-ylcarbonyl)-2H-1,2-oxazol-5-ylidene]cyclohexa-2,5-dien-1-one] displayed an EC50 of 5.24 µM.
As to `O=C(Nc1cccc(C(F)(F)F)c1)N1CCC(c2nc(-c3ccc(F)cc3)no2)CC1` [4-[3-(4-Fluoro-phenyl)-[1,2,4]oxadiazol-5-yl]-piperidine-1-carboxylic acid (3-trifluoromethyl-phenyl)-amide], a half-maximal effect (EC50) was put at 7.37 µM.
`O=C(Nc1ccc(Cl)cc1)N1CCC(c2nc(-c3ccc(F)cc3)no2)CC1` [4-[3-(4-Fluoro-phenyl)-[1,2,4]oxadiazol-5-yl]-piperidine-1-carboxylic acid (4-chloro-phenyl)-amide] registered an EC50 of 5.07 µM.
`Fc1ccc2[nH]c3c(N4CCN(Cc5ccc6c(c5)OCO6)CC4)ncnc3c2c1` [4-[4-(1,3-benzodioxol-5-ylmethyl)-1-piperazinyl]-8-fluoro-5H-pyrimido[5,4-b]indole] yielded an EC50 of 1.96 µM.
As to `COc1cccc(N2CCN(c3ncnc4c3[nH]c3ccccc34)CC2C)c1` (stereo not drawn) [4-[4-(3-methoxyphenyl)-3-methyl-1-piperazinyl]-5H-pyrimido[5,4-b]indole], the EC50 is 3.73 µM.
In the case of `Oc1ccc(N2CCN(c3ncnc4sc5c(c34)CCC5)CC2)cc1` [4-[4-(7,8-dihydro-6H-cyclopenta[4,5]thieno[1,2-c]pyrimidin-1-yl)-1-piperazinyl]phenol], the concentration giving a half-maximal response (EC50) was 9.07 µM.
In turn, `Clc1ccc(OCCN2CCN(c3ncnc4sccc34)CC2)cc1` [4-[4-[2-(4-chloranylphenoxy)ethyl]piperazin-1-yl]thieno[2,3-d]pyrimidine] displayed an EC50 of 0.106 µM.
`CCOc1ccc(Cc2nc(-c3nonc3N)no2)cc1OCC` [4-[5-(3,4-diethoxybenzyl)-1,2,4-oxadiazol-3-yl]-1,2,5-oxadiazol-3-amine]: the EC50 was 9.19 µM.
As to `CCOc1ccc(-c2nc(-c3ccncc3)no2)cc1OCC` [4-[5-(3,4-diethoxyphenyl)-1,2,4-oxadiazol-3-yl]pyridine], the EC50 turned out to be 0.207 µM.
For `Cc1ccc(C(C)C)c(OCc2nc(-c3nonc3N)no2)c1` [4-[5-[(5-methyl-2-propan-2-yl-phenoxy)methyl]-1,2,4-oxadiazol-3-yl]-1,2,5-oxadiazol-3-amine], the midpoint of the response, the EC50, lay at 1.61 µM.
On to `c1ccc(N2CCN(Cc3ccnc4ccccc34)CC2)cc1` [4-[(4-phenyl-1-piperazinyl)methyl]quinoline], for which it took 9.24 µM to reach a half-maximal effect (EC50).
For the molecule `CCN(CC)c1ccc2cc(NC(=O)CCC(=O)O)c(=O)oc2c1` [4-[[7-(diethylamino)-2-keto-chromen-3-yl]amino]-4-keto-butyric acid], the 50% effective concentration (EC50) turned out to be 9.78 µM.
Regarding `CN(CC1CCCO1)S(=O)(=O)c1ccc(C(=O)Nc2nc(-c3ccccn3)cs2)cc1` (stereo not drawn) [4-[methyl(2-oxolanylmethyl)sulfamoyl]-N-[4-(2-pyridinyl)-2-thiazolyl]benzamide], the EC50 is > 10 µM.

The experiment is the same for the next values; noted with them: inactive by the depositor's call.
For `Cc1ccc(Cl)cc1N1CCN(C(=O)COc2ccc(S(=O)(=O)NC(C)C)cc2)CC1` [4-[2-[4-(5-chloranyl-2-methyl-phenyl)piperazin-1-yl]-2-oxidanylidene-ethoxy]-N-propan-2-yl-benzenesulfonamide], the half-maximal effective concentration (EC50) worked out at 12 µM.
Consider `CCOC(=O)c1ccc(NC(=O)CCc2nc(-c3ccc(Cl)cc3)no2)cc1` [4-[3-[3-(4-chlorophenyl)-1,2,4-oxadiazol-5-yl]propanoylamino]benzoic acid ethyl ester], for which the EC50 was found to be 13.3 µM.
In turn, `Cn1nc(CC(=O)Nc2ccc(N3CCN(C(=O)OC(C)(C)C)CC3)cc2)c2ccccc2c1=O` [4-[4-[[2-(3-methyl-4-oxo-1-phthalazinyl)-1-oxoethyl]amino]phenyl]-1-piperazinecarboxylic acid tert-butyl ester] yielded an EC50 of 13.3 µM.
Regarding `CCOC(=O)N1CCC(NC(=O)C2CCCN(Cc3nc(-c4cccc(Cl)c4)oc3C)C2)CC1` (stereo not drawn) [4-[[1-[[2-(3-chlorophenyl)-5-methyl-oxazol-4-yl]methyl]nipecotoyl]amino]piperidine-1-carboxylic acid ethyl ester], a half-maximal effect (EC50) was put at 18.4 µM.
Consider `COC(=O)c1ccc(C(c2c(N)n(CC(C)C)c(=O)[nH]c2=O)N2CCN(c3ccccc3)CC2)cc1` (stereo not drawn) [4-[[6-amino-1-(2-methylpropyl)-2,4-dioxo-5-pyrimidinyl]-(4-phenyl-1-piperazinyl)methyl]benzoic acid methyl ester], for which the EC50 is 95 µM.

(Values after BindingDB's records for doi:10.7270/Q2251GJ9 (The Scripps Research Institute Molecular Screening Center, 2007).)
